Assay results published in US10624343B2, “Phenyl urea compound, and use thereof” (Sumitomo Chemical Company, Limited, priority 2016, dated 2020).

System: cucumber phytophthora blight fungi (Phytophthora capsici)
Test: Test for controlling cucumber phytophthora blight fungi (titer plate growth test)
Format: cell-based
Conditions: 4.5 mg in 100 μL dimethyl sulfoxide, 1 μL portion plus 150 μL PDB medium with zoospores; 27° C., three days; absorbance at 600 nm; Efficacy=100×(X−Y)/X
Procedure: Test example 1: Test for controlling cucumber phytophthora blight fungi (Phytophthora capsici)
Four point five (4.5) milligrams of the present compound was diluted with 100 μL of dimethyl sulfoxide. One (1) μL portion of the diluted liquid was dispensed into a titer plate (96 wells), and thereto was then dispensed 150 μL of a potato dextrose broth medium (PDB medium) containing zoospores of cucumber phytophthora blight fungi (Phytophthora capsici). This plate was cultured at 27° C. for three days, thereby allowing the cucumber phytophthora blight fungi to undergo proliferation, and the absorbance at 600 nm of each well of the titer plate was then measured to determine a degree of growth of the cucumber phytophthora blight fungi. The efficacy was calculated from the determined degree of growth by the below-mentioned “Equation 1”. As a result, the efficacy of the Present compound was 90% or more. Efficacy=100×(X−Y)/X “Equation 1” where X: Degree of fungal growth in non-treated area Y: Degree of fungal growth in treated area
In the test example, a non-treated area means an area in which a test was conducted in the same manner, except that dimethyl sulfoxide was dispensed in place of the present compound diluted with dimethyl sulfoxide.

Structure (SMILES) | efficacy
CCOC(=O)COc1ncccc1Oc1cc(NC(N)=O)c(F)cc1Cl [Present compound] | ≥ 90%
CCOC(=O)COc1ncccc1Oc1cc(NC(C)=O)c(F)cc1Cl [N-[4-chloro-2-fluoro-5-{2-(ethoxycarbonyl)methoxy-3-pyridyloxy}phenyl]acetamide] | less than 50%
